One block for each molecule: values may come before it. Active and inactive are the calls of the source. The rule behind the calls is not given here.
Columns and labels:
[1] = target: T1, Muscarinic acetylcholine receptor M2 (Homo sapiens) (UniProt P08172); experiment: Amplification of transfected NIH3T3 cells was measured in Muscarinic acetylcholine receptor M2 required to produce half maximal effect; type: functional, cell-based
T1 sequence (whole entry): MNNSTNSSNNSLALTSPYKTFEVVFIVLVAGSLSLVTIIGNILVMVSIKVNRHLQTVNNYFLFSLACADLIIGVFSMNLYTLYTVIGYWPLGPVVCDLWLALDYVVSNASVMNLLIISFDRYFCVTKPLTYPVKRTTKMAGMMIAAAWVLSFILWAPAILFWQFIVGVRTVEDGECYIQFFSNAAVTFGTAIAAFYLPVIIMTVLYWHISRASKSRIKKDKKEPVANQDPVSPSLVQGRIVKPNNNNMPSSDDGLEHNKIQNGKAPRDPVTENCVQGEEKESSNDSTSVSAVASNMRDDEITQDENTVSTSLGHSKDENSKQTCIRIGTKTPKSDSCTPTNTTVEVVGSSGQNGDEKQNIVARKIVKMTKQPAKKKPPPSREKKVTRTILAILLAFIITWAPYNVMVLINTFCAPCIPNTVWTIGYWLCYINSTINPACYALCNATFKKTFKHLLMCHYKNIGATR

[2] = target: T2, Muscarinic acetylcholine receptor M4 (Homo sapiens) (UniProt P08173); experiment: Amplification of transfected NIH3T3 cells was measured in Muscarinic acetylcholine receptor M4 required to produce half maximal effect; type: functional, cell-based
T2 sequence (whole entry): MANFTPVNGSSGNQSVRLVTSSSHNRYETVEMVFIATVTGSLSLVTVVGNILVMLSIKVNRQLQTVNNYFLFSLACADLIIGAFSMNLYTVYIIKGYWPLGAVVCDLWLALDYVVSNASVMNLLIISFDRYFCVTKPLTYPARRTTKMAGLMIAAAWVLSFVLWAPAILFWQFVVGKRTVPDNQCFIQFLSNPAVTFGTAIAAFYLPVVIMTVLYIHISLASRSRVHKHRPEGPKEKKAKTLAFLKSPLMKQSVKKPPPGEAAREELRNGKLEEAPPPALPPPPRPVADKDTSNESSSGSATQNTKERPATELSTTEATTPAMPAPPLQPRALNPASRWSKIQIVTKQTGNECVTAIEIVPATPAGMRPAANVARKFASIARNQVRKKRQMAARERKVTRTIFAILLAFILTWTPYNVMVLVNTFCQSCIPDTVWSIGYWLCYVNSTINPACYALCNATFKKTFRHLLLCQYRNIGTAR

[3] = target: Muscarinic acetylcholine receptor (Rattus norvegicus) (UniProt P08482+P08483+P08485+P08911+P10980); experiment: Ratio of QNB binding to CMD binding was evaluated; type: protein assay
[4] = target: T3, Muscarinic acetylcholine receptor M1 (Homo sapiens) (UniProt P11229); experiment: Stimulation of inositol phosphate(PI) accumulation in CHO cells expressing Muscarinic acetylcholine receptor M1 as maximal response at 100 uM relative to carbachol; type: functional, cell-based
T3 sequence (whole entry): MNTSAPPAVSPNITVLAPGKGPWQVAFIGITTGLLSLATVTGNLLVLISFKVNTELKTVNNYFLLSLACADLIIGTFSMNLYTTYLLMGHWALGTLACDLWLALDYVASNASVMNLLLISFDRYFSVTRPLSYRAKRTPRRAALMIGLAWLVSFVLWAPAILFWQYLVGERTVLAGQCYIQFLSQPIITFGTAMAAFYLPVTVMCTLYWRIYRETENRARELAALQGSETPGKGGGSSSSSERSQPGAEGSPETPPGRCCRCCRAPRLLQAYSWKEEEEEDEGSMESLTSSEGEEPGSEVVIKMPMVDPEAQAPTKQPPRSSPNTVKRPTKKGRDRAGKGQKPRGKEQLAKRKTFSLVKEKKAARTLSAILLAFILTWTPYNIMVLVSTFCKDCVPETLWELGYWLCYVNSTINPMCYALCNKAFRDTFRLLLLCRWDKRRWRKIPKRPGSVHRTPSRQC

[5] = target: T4, Muscarinic acetylcholine receptor M5 (Homo sapiens) (UniProt P08912); experiment: Maximal response obtained for each drug normalized to effect of carbachol in Muscarinic acetylcholine receptor M5; type: functional
T4 sequence (whole entry): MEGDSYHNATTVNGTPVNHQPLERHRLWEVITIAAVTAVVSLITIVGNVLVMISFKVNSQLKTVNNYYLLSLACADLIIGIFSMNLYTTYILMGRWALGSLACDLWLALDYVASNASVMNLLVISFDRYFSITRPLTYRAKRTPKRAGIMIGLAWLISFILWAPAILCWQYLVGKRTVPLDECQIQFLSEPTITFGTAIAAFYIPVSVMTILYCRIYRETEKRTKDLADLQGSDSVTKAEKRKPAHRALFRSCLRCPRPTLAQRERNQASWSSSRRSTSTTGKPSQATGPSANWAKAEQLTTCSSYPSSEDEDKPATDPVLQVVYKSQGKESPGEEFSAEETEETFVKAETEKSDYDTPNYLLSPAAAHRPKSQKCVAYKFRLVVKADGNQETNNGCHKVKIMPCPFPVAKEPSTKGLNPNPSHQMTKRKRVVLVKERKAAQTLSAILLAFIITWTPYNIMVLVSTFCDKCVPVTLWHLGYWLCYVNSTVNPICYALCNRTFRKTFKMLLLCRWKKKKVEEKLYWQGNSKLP

[6] = target: T5, Muscarinic acetylcholine receptor M1 (Homo sapiens, UniProt P11229); experiment: biochemical; type: cell-based, CHO
T5 sequence (P11229 whole entry): T3 sequence (whole entry)
Description: Binding affinity of [3H]-QNB to CHO cells expressing human Muscarinic acetylcholine receptor M1

[7] = target: T2, Muscarinic acetylcholine receptor M4 (Homo sapiens); experiment: Maximal response obtained for each drug normalized to effect of carbachol in Muscarinic acetylcholine receptor M4; type: functional
[8] = target: Muscarinic acetylcholine receptor M3 (Homo sapiens) (UniProt P20309); experiment: Inositol phosphate(PI) accumulation in CHO cells expressing Muscarinic acetylcholine receptor M3 as maximal response at 100 uM relative to carbachol; type: functional, cell-based
Muscarinic acetylcholine receptor M3 (Homo sapiens), sequence (P20309 whole entry, looked up): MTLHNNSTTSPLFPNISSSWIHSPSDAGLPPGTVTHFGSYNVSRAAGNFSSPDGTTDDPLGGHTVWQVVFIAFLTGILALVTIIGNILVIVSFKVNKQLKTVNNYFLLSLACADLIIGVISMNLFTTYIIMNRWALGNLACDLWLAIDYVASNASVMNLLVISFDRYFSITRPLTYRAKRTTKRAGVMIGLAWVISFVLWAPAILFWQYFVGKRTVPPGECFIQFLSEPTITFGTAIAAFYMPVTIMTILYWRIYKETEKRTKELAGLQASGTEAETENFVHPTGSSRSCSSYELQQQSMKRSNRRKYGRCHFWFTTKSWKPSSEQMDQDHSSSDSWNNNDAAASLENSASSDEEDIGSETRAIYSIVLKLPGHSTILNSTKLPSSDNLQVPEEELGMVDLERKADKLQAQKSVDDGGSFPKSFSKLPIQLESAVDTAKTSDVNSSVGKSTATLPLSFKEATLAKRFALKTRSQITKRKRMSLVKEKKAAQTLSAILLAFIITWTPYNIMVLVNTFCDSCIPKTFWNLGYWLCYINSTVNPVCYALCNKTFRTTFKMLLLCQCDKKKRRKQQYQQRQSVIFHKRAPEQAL

[9] = target: T4, Muscarinic acetylcholine receptor M5 (Homo sapiens); experiment: Amplification of transfected NIH3T3 cells was measured in Muscarinic acetylcholine receptor M5 required to produce half maximal effect; type: functional, cell-based
[10] = target: Muscarinic acetylcholine receptor M3 (Homo sapiens) (UniProt P20309); experiment: Maximal response obtained for each drug normalized to effect of carbachol in Muscarinic acetylcholine receptor M3; type: functional
[11] = target: T6, Muscarinic acetylcholine receptor M2 (Homo sapiens, UniProt P08172); experiment: Binding affinity of [3H]QNB to CHO cells expressing human Muscarinic acetylcholine receptor M2; type: cell-based
T6 sequence (P08172 whole entry): T1 sequence (whole entry)

[12] = target: T1, Muscarinic acetylcholine receptor M2 (Homo sapiens); experiment: Maximal response obtained for each drug normalized to effect of carbachol in Muscarinic acetylcholine receptor M2; type: functional
[13] = target: T3, Muscarinic acetylcholine receptor M1 (Homo sapiens); experiment: Maximal response obtained for each drug normalized to effect of carbachol in Muscarinic acetylcholine receptor M1; type: functional
[14] = target: T4, Muscarinic acetylcholine receptor M5 (Homo sapiens); experiment: Stimulations of inositol phosphate(PI) accumulation in transfected CHO cells in Muscarinic acetylcholine receptor M5 values are the maximal response obtained from the compound tested at 100 uM normalized to the effects of carbachol.; type: functional, cell-based
[15] = target: T1, Muscarinic acetylcholine receptor M2 (Homo sapiens); experiment: Reversal of forskolin-stimulated accumulation of […] in transfected CHO cells, against Muscarinic acetylcholine receptor M2; Not active up to 1 mM; type: functional, cell-based
[16] = target: Muscarinic acetylcholine receptor M3 (Homo sapiens) (UniProt P20309); settings: NIH3T3
Description: Amplification of transfected NIH3T3 cells was measured in Muscarinic acetylcholine receptor M3 required to produce half maximal effect

[17] = target: T2, Muscarinic acetylcholine receptor M4 (Homo sapiens); experiment: Reversal of forskolin-stimulated accumulation of […] in transfected CHO cells, against Muscarinic acetylcholine receptor M4; NA=Not active up to 1 mM; type: functional, cell-based
[18] = target: T3, Muscarinic acetylcholine receptor M1 (Homo sapiens); settings: NIH3T3
[19] = target: Muscarinic acetylcholine receptor M3 (Homo sapiens) (UniProt P20309); experiment: Stimulations of inositol phosphate(PI) accumulation in transfected CHO cells in Muscarinic acetylcholine receptor M3 values are the maximal response obtained from the compound tested at 100 uM normalized to the effect of carbachol.; type: functional, cell-based
[20] = target: T4, Muscarinic acetylcholine receptor M5 (Homo sapiens); experiment: Stimulations of inositol phosphate(PI) accumulation in transfected CHO cells in Muscarinic acetylcholine receptor M5 values are the maximal response obtained from the compound tested at 100 uM normalized to the effect of carbachol.; type: functional, cell-based
[21] = target: T2, Muscarinic acetylcholine receptor M4 (Homo sapiens); experiment: Reversal of forskolin-stimulated accumulation of […] in transfected CHO cells, against Muscarinic acetylcholine receptor M4; Not active; type: functional, cell-based
[22] = target: T3, Muscarinic acetylcholine receptor M1 (Homo sapiens); experiment: Stimulations of inositol phosphate(PI) accumulation in transfected CHO cells in Muscarinic acetylcholine receptor M1 values are the maximal response obtained from the compound tested at 100 uM normalized to the effect of carbachol.; type: functional, cell-based
[23] = target: T4, Muscarinic acetylcholine receptor M5 (Homo sapiens); experiment: Inositol phosphate(PI) accumulation in CHO cells expressing Muscarinic acetylcholine receptor M5 as maximal response at 100 uM relative to carbachol; type: functional, cell-based
[24] = target: T3, Muscarinic acetylcholine receptor M1 (Homo sapiens); experiment: Stimulations of inositol phosphate(PI) accumulation in transfected CHO cells in Muscarinic acetylcholine receptor M1 values are the maximal response obtained from the compound tested at 100 uM normalized to the effects of carbachol.; type: functional, cell-based
[25] = target: T6, Muscarinic acetylcholine receptor M2; experiment: Binding affinity of compound labeled by [3H]QNB in CHO cells selectively expressing human Muscarinic acetylcholine receptor M2; type: cell-based
[26] = target: T5, Muscarinic acetylcholine receptor M1; experiment: Binding affinity of compound labeled by [3H]QNB in CHO cells selectively expressing human Muscarinic acetylcholine receptor M1; type: cell-based
[27] = target: Muscarinic acetylcholine receptor; experiment: Muscarinic acetylcholine receptor binding assay was conducted using [3H]cis-methyldioxolane (CMD) to label agonist sites in membrane preparations from rat neocortex
[28] = target: Muscarinic acetylcholine receptor; experiment: Muscarinic acetylcholine receptor binding assay was conducted using [3H]quinuclidinyl benzilate (QNB) to label antagonist sites in membrane preparations from rat neocortex

ED50 [1]: 1320 nM | ED50 [2]: 93 nM | Ratio [3]: 250 | CCh [4]: 82% | CCh [5]: 103% | IC50 [6]: 7680 nM | CCh [7]: 68% | CCh [8]: 6% | ED50 [9]: 5990 nM | CCh [10]: 93% | IC50 [11]: 52000 nM | CCh [12]: 81% | CCh [13]: 30% | CCh [14]: 11% | ED50 [15]: inactive | ED50 [16]: 3860 nM | ED50 [17]: inactive | ED50 [18]: 42 nM
Structure (SMILES): COc1cccc(C#CCO/N=C2\CN3CCC2C3)c1 (stereo not given)

Structure (SMILES): C(#Cc1ccccc1)CO/N=C1\CN2CCC1C2 (stereo not given)
Stimulations [19]: 8% | Ratio [3]: 108 | Stimulations [20]: 1% | ED50 [21]: inactive | ED50 [15]: inactive | Stimulations [22]: 40%

Ratio [3]: 203 | IC50 [6]: 3340 nM | CCh [23]: 3% | CCh [8]: 4% | IC50 [11]: 20600 nM | CCh [24]: 41%
Structure (SMILES): Clc1cccc(C#CCO/N=C2\CN3CCC2C3)c1 (stereo not given)

Structure (SMILES): CC(C)=CCO/N=C1\CN2CCC1C2 (stereo not given)
IC50 [25]: 519 nM | Ratio [3]: 179 | IC50 [26]: 216 nM | IC50 [27]: 7.08 nM | IC50 [28]: 1270 nM

— ChEMBL document CHEMBL1131286, “Design and synthesis of m1-selective muscarinic agonists: (R)-(-)-(Z)-1-Azabicyclo[2.2.1]heptan-3-one, O-(3-(3'-methoxyphenyl)-2-propynyl)oxime maleate (CI-1017), a functionally m1-selective muscarinic agonist” (J Med Chem, 1998)
